Results as given in patent US12617779B2, “Self degradation-type CDK9 inhibitor prodrug and liposome encapsulating same” (Sumitomo Pharma Co., Ltd., priority 2021, dated 2026).
Counter-ions that a name gives are not always drawn.

Experiment: Evaluation of conversion rate to active form in buffer solution (Experimental Example 1)
Assay type: physicochemical
Conditions: for Production rate of Alvocidib / Residual rate: 37° C., 25 umol/L in buffer solution; for Stability in buffer solution at pH 5: pH 5, 37° C., up to 2 or 3 hours; for Conversion to Alvocidib at pH 7.4: pH 7.4, 37° C., up to 3 hours
Method in brief: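 Conversion to Alvocidib and loss of parent were followed by HPLC over 3 h (samples at 0, 0.5, 1, 2, 3 h). Incubations used 25 umol/L compound at 37 °C across pH 5.0–7.4, in 50 mM citrate below pH 6.0 and 50 mM phosphate from pH 6.0 upward.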

With `CCN(CC1CCCCN1)C(=O)Oc1cc(O)c2c(=O)cc(-c3ccccc3Cl)oc2c1[C@H]1CCN(C)C[C@H]1O` (stereo partly drawn) [Example 7, 2-(2-chlorophenyl)-5-hydroxy-8-[(3S,4R)-3-hydroxy-1-methylpiperidin-4-yl]-4-oxo-4H-1-benzopyran-7-yl ethyl[(piperidin-2-yl)methyl]carbamate dihydrochloride] the “Production rate of Alvocidib” value (pH5.0, 0 hr) was 0.0%, the Residual rate (pH5.0, 0 hr) was 100.0% and the “Stability in buffer solution at pH 5” value was “stable”. The “Production rate of Alvocidib” value (pH5.0, 0.5 hr) was 0.0%, the Residual rate (pH5.0, 0.5 hr) was 100.0% and the “Production rate of Alvocidib” value (pH5.0, 1 hr) was 0.0%. For the same compound, the Residual rate (pH5.0, 1 hr) was 100.0%, the “Production rate of Alvocidib” value (pH5.0, 2 hr) was 1.5% and the Residual rate (pH5.0, 2 hr) was 98.5%. For the same compound, the “Production rate of Alvocidib” value (pH5.0, 3 hr) was 2.3%, the Residual rate (pH5.0, 3 hr) was 97.7% and the “Production rate of Alvocidib” value (pH5.5, 0 hr) was 0.0%. For the same compound, the Residual rate (pH5.5, 0 hr) was 100.0%, the “Production rate of Alvocidib” value (pH5.5, 0.5 hr) was 1.2% and the Residual rate (pH5.5, 0.5 hr) was 98.8%. For the same compound, the “Production rate of Alvocidib” value (pH5.5, 1 hr) was 2.0%, the Residual rate (pH5.5, 1 hr) was 98.0% and the “Production rate of Alvocidib” value (pH5.5, 2 hr) was 3.8%. For the same compound, the Residual rate (pH5.5, 2 hr) was 96.2%, the “Production rate of Alvocidib” value (pH5.5, 3 hr) was 5.1% and the Residual rate (pH5.5, 3 hr) was 94.9%. The “Production rate of Alvocidib” value (pH6.0, 0 hr) was 1.1%, the Residual rate (pH6.0, 0 hr) was 98.9% and the “Production rate of Alvocidib” value (pH6.0, 0.5 hr) was 4.0%. For the same compound, the Residual rate (pH6.0, 0.5 hr) was 96.0%, the “Production rate of Alvocidib” value (pH6.0, 1 hr) was 5.4% and the Residual rate (pH6.0, 1 hr) was 94.6%. The “Production rate of Alvocidib” value (pH6.0, 2 hr) was 12.5%, the Residual rate (pH6.0, 2 hr) was 87.5% and the “Production rate of Alvocidib” value (pH6.0, 3 hr) was 16.6%. The Residual rate (pH6.0, 3 hr) was 83.4%, the “Production rate of Alvocidib” value (pH6.5, 0 hr) was 3.3% and the Residual rate (pH6.5, 0 hr) was 96.7%. The “Production rate of Alvocidib” value (pH6.5, 0.5 hr) was 12.4%, the Residual rate (pH6.5, 0.5 hr) was 87.6% and the “Production rate of Alvocidib” value (pH6.5, 1 hr) was 16.0%. For the same compound, the Residual rate (pH6.5, 1 hr) was 84.0%, the “Production rate of Alvocidib” value (pH6.5, 2 hr) was 26.8% and the Residual rate (pH6.5, 2 hr) was 73.2%. The “Production rate of Alvocidib” value (pH6.5, 3 hr) was 35.2%, the Residual rate (pH6.5, 3 hr) was 64.8% and the “Production rate of Alvocidib” value (pH7.0, 0 hr) was 10.9%. For the same compound, the Residual rate (pH7.0, 0 hr) was 89.1%, the “Production rate of Alvocidib” value (pH7.0, 0.5 hr) was 27.3% and the Residual rate (pH7.0, 0.5 hr) was 72.7%. The “Production rate of Alvocidib” value (pH7.0, 1 hr) was 38.0%, the Residual rate (pH7.0, 1 hr) was 62.0% and the “Production rate of Alvocidib” value (pH7.0, 2 hr) was 52.9%. For the same compound, the Residual rate (pH7.0, 2 hr) was 47.1%, the “Production rate of Alvocidib” value (pH7.0, 3 hr) was 70.5% and the Residual rate (pH7.0, 3 hr) was 29.5%. The “Production rate of Alvocidib” value (pH7.4, 0 hr) was 19.0%, the Residual rate (pH7.4, 0 hr) was 81.0% and the “Conversion to Alvocidib at pH 7.4” value was “rapidly converted to Alvocidib”. For the same compound, the “Production rate of Alvocidib” value (pH7.4, 0.5 hr) was 50.2%, the Residual rate (pH7.4, 0.5 hr) was 49.8% and the “Production rate of Alvocidib” value (pH7.4, 1 hr) was 60.8%. For the same compound, the Residual rate (pH7.4, 1 hr) was 39.2%, the “Production rate of Alvocidib” value (pH7.4, 2 hr) was 69.0% and the Residual rate (pH7.4, 2 hr) was 31.0%. The “Production rate of Alvocidib” value (pH7.4, 3 hr) was 81.0% and the Residual rate (pH7.4, 3 hr) was 19.0%.

For `CN1CC[C@H](c2c(OC(=O)N(C)CC3CCCCN3)cc(O)c3c(=O)cc(-c4ccccc4Cl)oc23)[C@H](O)C1` (stereo partly drawn) [Example 8, 2-(2-chlorophenyl)-5-hydroxy-8-[(3S,4R)-3-hydroxy-1-methylpiperidin-4-yl]-4-oxo-4H-1-benzopyran-7-yl methyl[(piperidin-2-yl)methyl]carbamate], the “Production rate of Alvocidib” value (pH5.0, 0 hr) was 0.7%, the Residual rate (pH5.0, 0 hr) was 95.4% and the “Stability in buffer solution at pH 5” value was “stable”. The “Production rate of Alvocidib” value (pH5.0, 0.5 hr) was 1.2%, the Residual rate (pH5.0, 0.5 hr) was 95.1% and the “Production rate of Alvocidib” value (pH5.0, 1 hr) was 1.6%. The Residual rate (pH5.0, 1 hr) was 95.0%, the “Production rate of Alvocidib” value (pH5.0, 2 hr) was 2.0% and the Residual rate (pH5.0, 2 hr) was 94.7%. For the same compound, the “Production rate of Alvocidib” value (pH5.5, 0 hr) was 0.5%, the Residual rate (pH5.5, 0 hr) was 95.9% and the “Production rate of Alvocidib” value (pH5.5, 0.5 hr) was 1.6%. For the same compound, the Residual rate (pH5.5, 0.5 hr) was 95.0%, the “Production rate of Alvocidib” value (pH5.5, 1 hr) was 2.5% and the Residual rate (pH5.5, 1 hr) was 94.3%. For the same compound, the “Production rate of Alvocidib” value (pH5.5, 2 hr) was 3.5%, the Residual rate (pH5.5, 2 hr) was 93.4% and the “Production rate of Alvocidib” value (pH6.0, 0 hr) was 0.8%. For the same compound, the Residual rate (pH6.0, 0 hr) was 95.7%, the “Production rate of Alvocidib” value (pH6.0, 0.5 hr) was 4.4% and the Residual rate (pH6.0, 0.5 hr) was 92.1%. For the same compound, the “Production rate of Alvocidib” value (pH6.0, 1 hr) was 7.3%, the Residual rate (pH6.0, 1 hr) was 89.4% and the “Production rate of Alvocidib” value (pH6.0, 2 hr) was 10.3%. The Residual rate (pH6.0, 2 hr) was 86.5%, the “Production rate of Alvocidib” value (pH6.5, 0 hr) was 1.5% and the Residual rate (pH6.5, 0 hr) was 95.0%. For the same compound, the “Production rate of Alvocidib” value (pH6.5, 0.5 hr) was 11.2%, the Residual rate (pH6.5, 0.5 hr) was 85.3% and the “Production rate of Alvocidib” value (pH6.5, 1 hr) was 18.9%. The Residual rate (pH6.5, 1 hr) was 77.7%, the “Production rate of Alvocidib” value (pH6.5, 2 hr) was 25.6% and the Residual rate (pH6.5, 2 hr) was 71.2%. The “Production rate of Alvocidib” value (pH7.0, 0 hr) was 4.0%, the Residual rate (pH7.0, 0 hr) was 92.5% and the “Production rate of Alvocidib” value (pH7.0, 0.5 hr) was 27.3%. For the same compound, the Residual rate (pH7.0, 0.5 hr) was 69.3%, the “Production rate of Alvocidib” value (pH7.0, 1 hr) was 40.0% and the Residual rate (pH7.0, 1 hr) was 56.7%. For the same compound, the “Production rate of Alvocidib” value (pH7.0, 2 hr) was 48.2%, the Residual rate (pH7.0, 2 hr) was 49.0% and the “Production rate of Alvocidib” value (pH7.4, 0 hr) was 9.7%. The Residual rate (pH7.4, 0 hr) was 86.7%, the “Conversion to Alvocidib at pH 7.4” value was “rapidly converted to Alvocidib” and the “Production rate of Alvocidib” value (pH7.4, 0.5 hr) was 45.1%. For the same compound, the Residual rate (pH7.4, 0.5 hr) was 51.4%, the “Production rate of Alvocidib” value (pH7.4, 1 hr) was 55.2% and the Residual rate (pH7.4, 1 hr) was 41.7%. The “Production rate of Alvocidib” value (pH7.4, 2 hr) was 58.2% and the Residual rate (pH7.4, 2 hr) was 38.4%.
